Results as given in US20140271734A1, “BILE ACID RECYCLING INHIBITORS FOR TREATMENT OF BARRETT'S ESOPHAGUS AND GASTROESOPHAGEAL REFLUX DISEASE” (LUMENA PHARMACEUTICALS, INC., priority 2013, published 2014).

Legend:
[1] = tested on: fecal total bile acid (FBA); assay: Fecal bile acids in dogs, LUM001 daily; format: in vivo, beagle dogs; conditions: 14 Days; for Weight-Adjusted Fecal Total Bile Acids Excretion: n=8
Procedure: Healthy female and male beagle dogs in the age range of 8 to 10 months were used. The animals were acclimated for at least four weeks before dose administration. Four female and four male dogs per dose group (groups 2-5) were given single daily doses of LUM001 at 1, 4, 12 and 30 mg free form/kg for 13 days. Animals in the control group (group 1) were given the same number of empty capsules as the animals of group 5 to treat all dose groups the same.
Fecal samples were collected to determine the fecal total bile acid (FBA) concentration for each animal. Fecal collections were made during the final 72 hours of the study, for three consecutive 24-hour periods between 9:00 am and 10:00 am each day, prior to dosing and feeding. The separate daily collections from each dog were weighed, combined and homogenized with distilled water in a food processor to generate a homogeneous slurry. Homogenate (1.4 g) was extracted in a final concentration ratio of 2:0.6 of 50% (v/v) tertiary butanol/distilled water for 45 minutes in a 37° C. water bath and subjected to centrifugation for 13 minutes at 2000×g. The concentration of bile acids (mmolesgram homogenate) was determined using a 96-well enzymatic assay system. Aliquots of the fecal extracts (20 μl) were added to two sets of triplicate wells in a 96 well assay plate. A standardized sodium taurocholate solution and a standardized fecal extract solution (previously made from pooled samples and characterized for its bile acid concentration) were also analyzed for assay quality control. Aliquots of sodium taurocholate (20 μl), were serially diluted to generate a standard curve containing 30-540 nmoles/well. A 230 μl aliquot of reaction mixture containing 1M hydrazine hydrate, 0.1 M pyrophosphate and 0.46 mg/ml NAD was added to each well. Subsequently, a 50 μl aliquot of either 3a-hydroxysteroid dehydrogenase enzyme (HSD; 0.8 units/ml) or assay buffer (0.1 M sodium pyrophosphate) was added to one each of the two sets of triplicates. Following 60 minutes of incubation at room temperature, the optical density at 340 nm was measured and the mean of each set of triplicate samples was calculated. The difference in optical density±HSD enzyme was used to determine the bile acid concentration (mM) of each sample based on the sodium taurocholate standard curve. The bile acid concentration of the extract (mmolesgram homogenate), the total weight of the fecal homogenate (grams) and the body weight of the dogs (kg) were used to calculate the corresponding FBA concentration in mmoles/kg/day for each animal. All reagents used for the assay were obtained from Sigma Chemical Co., St. Louis, Mo. (HSD—catalog # H-1506; NAD—catalog # N1636; sodium taurocholate—catalog # T-4009). A one-tailed, paired Student's t-test was used to determine the statistical significance of changes in FBA concentration in treated animals compared to pretreatment values and between treatment groups.

[2] = Body weight of hamsters, LUM001 for 28 days; format: in vivo, golden Syrian hamsters; conditions: n=10
Procedure: Male golden Syrian hamsters (126-147 gm) were obtained from Charles Rivers Laboratories and were single housed in a constant temperature environment with alternating 12-hour light and dark cycles. Hamsters were fed Teklad 7001 rodent meal chow at libitum for two weeks before the experimental studies began and switched to Teklad 7001 rodent meal chow supplemented with 0.24% cholesterol on day one of the 28-day experiment. LUM001 was dissolved in an aqueous solution of 0.2% (w/v) Tween 80 and administered Q.D. by intragastric gavage between 9 a.m. and 10 a.m. each morning using a syringe fitted with a flexible feeding tube. Blood samples were collected after 14- and 28-day treatment periods by orbital sinus and cardiac puncture, respectively. Hamsters were anesthetized but not fasted prior to blood collections. Fecal samples were collected during a 48-hour period at the end of days 14 and 28 (i.e., days 13-14 and 27-28, respectively).

plasma bile acid = assay: Plasma bile acid concentrations in ZDF rats; format: in vivo; conditions: SC-435 1, 10 or 30 mg/kg; LUM002 0.3, 1, 3, 10 or 30 mg/kg; oral gavage twice a day, end of second week, n=4
Procedure: Male Zucker diabetic fatty rats (ZDF/GmiCrl-fa/fa) were purchased from Charles River (Raleigh, N.C.) and housed under controlled conditions (12:12 light-dark cycle, 24° C. and 50% relative humidity) with free access to rodent food (Purina 5008, Harlan Teklad, Indianapolis, Ind.). All rats arrived at seven weeks of age (±3 days). After a one-week acclimation period, rats were anesthetized with isoflurane (Abbott Laboratories, IL) and tail-vein blood samples were collected at 9 am without fasting. Blood glucose levels were measured using a glucometer (Bayer, Leverkusen, Germany). In order to ensure balanced treatment groups, ZDF rats were assigned to six treatment groups based upon baseline glucose: vehicle (0.5% HPMC, 0.1% Tween80) and five doses of 264W94 (0.001, 0.01, 0.1, 1, 10 mg/kg). All treatments were given via oral gavage twice a day and animals were followed for two weeks with blood samples collected from tail vein at the end of each week at 9 am without fasting. Fecal samples were collected for 24 hours during the second week of treatment.
Non-esterified fatty acids (NEFA), bile acids, and bile acids in fecal extraction were measured using the Olympus AU640 clinical chemistry analyzer (Beckman Coulter, Irving, Tex.).
Male ZDF rats (n=4) were administered vehicle, SC-435 (1, 10 or 30 mg/kg) or LUM002 (0.3, 1, 3, 10 or 30 mg/kg) by oral gavage twice a day for 2 weeks. Plasma bile acid levels were determined at the end of the second week. […] Data are expressed as mean values±SEM.

[3] = tested on: Aspartate Aminotransferase (ASAT); assay: Plasma aspartate aminotransferase in ZDF rats, week 3; format: in vivo; conditions: twice daily oral gavage
[4] = tested on: fecal excretion of [14C]taurocholic acid (TCA); assay: Fecal excretion of [14C]taurocholic acid in hamsters, LUM002; format: in vivo, Syrian hamster; conditions: oral gavage in two half doses, feces collected 24 hours, n=4 nonfasted hamsters per group
Procedure: To study the effect of LUM002 on fecal excretion of [^14C]taurocholic acid (TCA) in the Syrian hamster in vivo, [^14C]TCA was administered intraperitoneally 1 hour before dosing the test compound. Each animal was dosed with 1 μCi [^14C]TCA. LUM002 was dosed by oral gavage (5 mL/kg per administration) in either 5% (v/v) Solutol with 0.5% hydroxyethylcellulose (HEC) or 0.5% HEC alone. The first half of dose of test compound/vehicle was given 1 hour after [^14Cl]TCA injection, followed by the second half of dose 7 hours after the first dose of test compound/vehicle. Feces were collected for 24 hours after [^14Cl]TCA administration and aliquots from feces were combusted for determination of [^14Cl] excretion.
The ED200 (dose which doubles the fecal excretion of [^14Cl] label vs. control from dose response curve, including 95% Confidence interval) was calculated from a dose response curve.

Compound: CCCCC1(CCCC)CS(=O)(=O)c2ccc(N(C)C)cc2[C@@H](c2ccc(OCc3ccc(C[N+]45CCN(CC4)CC5)cc3)cc2)[C@H]1O [LUM001]
- Weight-Adjusted Fecal Total Bile Acids Excretion, % change from vehicle group ([1]; 1 mg/kg/day): (+63) %
- Weight-Adjusted Fecal Total Bile Acids Excretion ([1]; 1 mg/kg/day): 96 ± 9 µmol/day/kg
- Weight-Adjusted Fecal Total Bile Acids Excretion, % change from vehicle group ([1]; 4 mg/kg/day): (+137) %
- Weight-Adjusted Fecal Total Bile Acids Excretion ([1]; 4 mg/kg/day): 140 ± 6 µmol/day/kg
- Weight-Adjusted Fecal Total Bile Acids Excretion, % change from vehicle group ([1]; 12 mg/kg/day): (+158) %
- Weight-Adjusted Fecal Total Bile Acids Excretion ([1]; 12 mg/kg/day): 152 ± 13 µmol/day/kg
- Weight-Adjusted Fecal Total Bile Acids Excretion, % change from vehicle group ([1]; 30 mg/kg/day): (+183) %
- Weight-Adjusted Fecal Total Bile Acids Excretion ([1]; 30 mg/kg/day): 167 ± 15 µmol/day/kg
- Body Weight (BW) ([2]; 5 mg/kg/day): 130 g
- Body Weight (BW) ([2]; 15 mg/kg/day): 136 g
- Body Weight (BW) ([2]; 50 mg/kg/day): 130 g

Compound: CCCC[C@]1(CC)CS(=O)(=O)c2ccc(N(C)C)cc2[C@@H](c2cccc(NC(=O)N[C@@H]3O[C@H](COS(=O)(=O)[O-])[C@@H](O)[C@H](OCc4ccccc4)[C@H]3O)c2)[C@H]1O.CCO.O.[K+] [LUM002, potassium((2R,3R,4S,5R,6R)-4-benzyloxy-6-{3-[3-((3S,4R,5R)-3-butyl-7-dimethylamino-3-ethyl-4-hydroxy-1,1-dioxo-2,3,4,5-tetrahydro-1H-benzo[b]thiepin-5-yl)-phenyl]-ureido}-3,5-dihydroxy-tetrahydro-pyran-2-ylmethyl)sulphate ethanolate, hydrate]
- Plasma bile acid levels (plasma bile acid): decreased for all doses
- Plasma aspartate aminotransferase (ASAT) [3]: statistically significant reduction in ASAT
- Fecal excretion of bile acids ([14C]TCA label) [4]: significantly increased fecal excretion of bile acids
